# Measurements published in patent US20170368037A1, “PHARMACEUTICAL COMPOSITION FOR PROMOTION OF FIBRINOLYSIS” (Daiichi Sankyo Company, Limited, priority 2014, published 2017).
# Tests used:
# [1] = test system: fibrinolysis induced by tPA in human plasma; assay: Fibrinolysis assay (clot lysis time in human plasma containing tPA and TM), Example 2; format: biochemical; conditions: tPA 180 ng/mL, TM 0.1 nM, vs control
# Procedure: Edoxaban was dissolved in DMSO to prepare a 10 mM solution, which was then stored at −30° C. Before use, the frozen product was thawed and diluted with DMSO and saline (DMSO concentration in test substance solution: 1.92%).
# PCI (Sigma-Aldrich, Co. LLC.) was dissolved in Hepes buffer to prepare a 4.8 mg/mL solution, which was then stored at −30° C. Before use, the frozen product was thawed and diluted with Hepes buffer.
# Hepes buffer, tPA solution, and PPP reagent were prepared in the same way as in Example 1(2). […]
# (§1) 70 μL of the human plasma sample (containing tPA and TM), 5 μL each of varying concentrations of the edoxaban solution, 5 μL of PCI, and 20 μL of the PPP reagent were added to each well of a 96-well plate (Sumilon Proteosave SS 96F plate, MS-8296F). […] Absorbance at 405 nm was measured every 30 seconds using SpectraMAX 384 Plus prewarmed to 37° C. The time for the absorbance to decrease to ½ of the peak from the time to reach ½ of the peak was calculated using SoftMax Pro 5.4.1 and used as clot lysis time. […]
# Two experiments were conducted on each of 3 lots of human plasma (n=6). The basic statistics (mean, standard deviation, and standard error) of the clot lysis time were calculated, and the results were indicated by mean±standard error (SEM). […] Concentration dependence was evaluated by Spearman's rank correlation coefficient hypothesis test. […]
# [2] = test system: fibrinolysis induced by tPA in human plasma; assay: Fibrinolysis assay (clot lysis time induced by tPA in human plasma), Example 1; format: biochemical; conditions: tPA 180 ng/mL, edoxaban 18.8 ng/mL to 300 ng/mL, vs control
# Procedure: Edoxaban was dissolved in dimethyl sulfoxide (hereinafter, also referred to as “DMSO”) (Wako Pure Chemical Industries, Ltd.) to prepare a 10 mM solution, which was then stored at −30° C. Before use, the frozen product was thawed and diluted with DMSO and saline (Otsuka Pharmaceutical Factory, Inc.) (DMSO concentration in test substance solution: 0.96%, final DMSO concentration in reaction system: 0.08%).
# Hepes buffer: Hepes (Sigma-Aldrich, Co. LLC.) and NaCl (Nacalai Tesque Inc.) were dissolved at 20 mM and 140 mM, respectively, in distilled water, and the solution was adjusted to pH 7.4 using a 1 mol/L sodium hydroxide solution (Nacalai Tesque Inc.). […]
# as §1, with “tPA), 10” for “tPA and TM), 5”, “solution,” for “solution, 5 μL of PCI,”, “Plus (Molecular Devices, LLC.)” for “Plus”, “return” for “decrease”, “5.4.1 (Molecular Devices, LLC.)” for “5.4.1”
# Two experiments were conducted on each of 3 lots of human plasma (n=6). […] The calculated P value was rounded off and indicated by three decimal places. […]
Compound,clot lysis time ([1]; PCI alone 0.3 to 3 μg/mL),clot lysis time ([1]; edoxaban alone 150 and 300 ng/mL),clot lysis time [2]
"PCI: carboxypeptidase inhibitor from potato tuber, a TAFIa inhibitor (Sigma-Aldrich) (QQHADPICNKPCKTHDDCSGAWFCQACWNSARTCGPYVG; UniProt P01075 1-39, looked up)",significantly shortened the clot lysis time in a concentration-dependent manner,–,–
"CN1CCc2nc(C(=O)N[C@@H]3C[C@@H](C(=O)N(C)C)CC[C@@H]3NC(=O)C(=O)Nc3ccc(Cl)cn3)sc2C1 [Edoxaban, N-(5-chloropyridin-2-yl)-N′-[(1S,2R,4S)-4-(dimethylcarbamoyl)-2-(5-methyl-4,5,6,7-tetrahydro[1,3]thiazolo[5,4-c]pyridine-2-carboxamido)cyclohexyl]oxamide]",–,significantly shortened the clot lysis time in a concentration-dependent manner,significantly shortened the clot lysis time in a concentration-dependent manner
